Measured values as given in patent US7642287B2, “Statin pharmaceutical compositions and related methods of treatment” (Transform Pharmaceuticals, Inc., priority 2004, dated 2010).
Values joined by “and” are separate entries in the source; they are usually repeats but may differ in a detail not shown here. Equal entries are not always repeated. Structures can show the parent of a compound that is named as a salt. Where two headings read alike, the source gives them in different places. Blank lines part the entries; values can stand above or below the compound they belong to.

Tests used:
[1] = Gravimetric solubility in deionized water at 23 degrees C; type: physicochemical; conditions: listed as calcium salt of fluvastatin
Procedure: Solubility measurements of the sodium salt and of the calcium salt of fluvastatin were acquired in water at 23 degrees C. Solubility was measured gravimetrically in deionized water.

[2] = Aqueous solubility via UV absorption; conditions: water, via UV detection, 20-25 degrees C.
Procedure: The term “aqueous solubility” refers to the solubility as measured in deionized water at about 25 degrees C., unless otherwise specified.
A calibration curve was constructed by preparing known concentrations of API in absolute ethanol in volumetric flasks. At each concentration, 200 microliters of the solution was transferred into a 96-well clear bottom UV plate. The sample absorbance was measured at 280 nm (unless otherwise noted) in a UV spectrophotometer.
To measure the API concentration in the sample, a small aliquot was taken and diluted (typically 2000-fold) with absolute ethanol in a volumetric flask to a final approximate concentration of less than 100 micrograms/mL. The absorbance at 280 nm (unless otherwise noted) is measured and the solubility is calculated based on the calibration curve.

[3] = Dynamic Vapor Sorption (DVS) moisture sorption isotherm; type: physicochemical
Excerpt: Dynamic Vapor Sorption (DVS) data were also acquired on both the pravastatin calcium salt and the pravastatin sodium salt. […] This is consistent with an amorphous compound. Hysteresis is observed in the desorption cycle. […] Significant hysteresis is observed in the desorption cycle.

[4] = Pharmacokinetic two-way cross-over study in fasted beagle dogs (plasma pravastatin, LC/MS); type: in vivo
Procedure: A two-way cross-over experiment was completed with six fasted beagle dogs to compare the pharmacokinetic parameters of pravastatin calcium salt with pravastatin sodium salt. The pravastatin sodium salt was acquired from PRAVACHOL® tablets. The pravastatin calcium salt was acquired via the method described in Example 1. The pravastatin calcium salt dosage form administered to the dogs consisted of 11.0 mg pravastatin calcium salt (equivalent to 10 mg pravastatin acid) and 744 mg Ropufa 75 ethyl esters of omega-3 fatty acids in a soft gelatin capsule shell. […] The mean dose of pravastatin free acid administered as PRAVACHOL® was 0.85 mg/kg and the mean dose of pravastatin free acid administered as pravastatin calcium salt was 0.95 mg/kg. Following administration, plasma samples were collected pre-dose and then at 0.25, 0.5, 1, 1.5, 2, 3, 4, 6, 8, 12, and 24 hours post-dose. Plasma samples were analyzed for pravastatin concentration using an LC/MS method.

[5] = 26 week stability of pravastatin salts suspended in E463808 omega-3 oil (HPLC); type: physicochemical
Procedure: Several salts of pravastatin were suspended in E463808 omega-3 oil and placed in either capped glass vials or sealed gelatin capsules. […] were used at 25 degrees C. while glass vials were used at 25, 40, and 60 degrees C. The suspensions of salt in oil were measured periodically for 26 weeks. HPLC was used to measure degradation of the pravastatin salts.

[6] = type: physicochemical
Procedure: Several salts of pravastatin were suspended in 87:13 E681010:ethanol mixtures and placed in capped glass vials. Each suspension of pravastatin calcium, pravastatin magnesium, pravastatin sodium, or pravastatin zinc in 87:13 E681010:ethanol was measured periodically for 12 weeks. HPLC was used to measure degradation of the pravastatin salts.

[7] = beagle, dog, plasma, po, 0.95 mg/kg, Mean of six fasted beagle dogs, mean dose as free acid 0.95 mg/kg (calcium salt softgel), 0.85 mg/kg (PRAVACHOL)
[8] = individual dogs, oral, fasted, mean dose as free acid 0.95 mg/kg (calcium salt softgel), 0.85 mg/kg (PRAVACHOL), calcium salt
[9] = suspension in E463808, capped glass vials, 8 weeks

aqueous solubility [1]: less than or equal to 0.275 mg/mL
Compound: CC(C)n1c(/C=C/C(O)CC(O)CC(=O)O)c(-c2ccc(F)cc2)c2ccccc21 (centres unmarked) [fluvastatin calcium salt]

aqueous solubility ([2]; listed as sodium salt of pravastatin, sodium salt): greater than 300 mg/mL
hygroscopicity compared with the calcium salt ([3]; DVS): greater hygroscopicity
relative humidity above which adsorbed water increased significantly ([3]; DVS sorp-desorp cycle): about 54 percent RH
Compound: CC[C@H](C)C(=O)O[C@H]1C[C@H](O)C=C2C=C[C@H](C)[C@H](CC[C@@H](O)C[C@@H](O)CC(=O)O)[C@H]21 [pravastatin sodium salt]

bioavailability ([4]; beagle, dog, plasma, po, 0.95 mg/kg, Mean of six dogs, relative to PRAVACHOL AUCinf, dose-normalized): 121%
AUC(0-inf) [4, 7]: 441 ng·h/mL
AUC(0-t) [4, 7]: 432 ng·h/mL
half-life [4, 7]: 2.35 h
Cmax ([4]; beagle, dog, plasma, po, 0.95 mg/kg, Mean of six fasted beagle dogs, oral, mean dose as free acid 0.95 mg/kg (calcium salt softgel), 0.85 mg/kg (PRAVACHOL), read-out: Cmax): 141 ng/mL
Tmax ([4]; beagle, dog, plasma, po, 0.95 mg/kg, Mean of six fasted beagle dogs, oral, mean dose as free acid 0.95 mg/kg (calcium salt softgel), 0.85 mg/kg (PRAVACHOL), read-out: Tmax): 0.71 h
AUC(0-t) ([4]; beagle, dog, plasma, po, 0.95 mg/kg, individual dogs, fasted, mean dose as free acid 0.95 mg/kg (calcium salt in Ropufa 75 omega-3 ethyl esters softgel), 0.85 mg/kg (PRAVACHOL)): 488 ng·h/mL
AUC(0-inf) ([4]; beagle, dog, plasma, po, 0.95 mg/kg, individual dogs, fasted, mean dose as free acid 0.95 mg/kg (calcium salt softgel), 0.85 mg/kg (PRAVACHOL)): 494 ng·h/mL
AUC values compared with the PRAVACHOL tablet ([4]; fasted beagle dogs, oral): slightly higher
Cmax values compared with the PRAVACHOL tablet ([4]; fasted beagle dogs, oral): slightly higher
Tmax values compared between the formulations ([4]; fasted beagle dogs, oral): comparable
Tmax [4, 8]: 1 h and 0.5 h and 0.25 h
aqueous solubility ([2]; listed as calcium salt of pravastatin, calcium salt): 17 to 20 mg/mL
stability in suspension of omega-3 oil relative to other pravastatin salts (sodium, potassium) ([5]; summary statement referring to the Exemplification): higher stability
degradation at 60 degrees C. vs potassium salt at 40 degrees C. [5, 9]: significantly less degradation
degradation at 60 degrees C. vs sodium salt at 40 degrees C. [5, 9]: similar
degradation vs sodium or potassium salt at a given temperature ([5]; suspension in E463808, capped glass vials, 40 and 60 degrees C.): degrade substantially less
degradation compared with all salts in gelcap or vial ([5]; suspension in E463808, vial, 25 degrees C., 26 weeks): degrade the least
Compound: CC[C@H](C)C(=O)O[C@H]1C[C@H](O)C=C2C=C[C@H](C)[C@H](CC[C@@H](O)C[C@@H](O)CC(=O)O)[C@H]21 [pravastatin calcium salt]
AUC0–t ([4]; individual dogs, oral, fasted, mean dose as free acid 0.95 mg/kg (calcium salt in Ropufa 75 omega-3 ethyl esters softgel), 0.85 mg/kg (PRAVACHOL), calcium salt): 438.55 ng·h/mL and 505.30 ng·h/mL and 380.68 ng·h/mL and 512.94 ng·h/mL and 264.11 ng·h/mL
AUCinf [4, 8]: 453.69 ng·h/mL and 515.14 ng·h/mL and 396.20 ng·h/mL and 518.11 ng·h/mL and 268.01 ng·h/mL
Cmax [4, 8]: 182 ng/mL and 131 ng/mL and 166 ng/mL and 99.0 ng/mL and 87.2 ng/mL
t1/2 [4, 8]: 1.67 h and 2.5 h and 1.89 h and 2.76 h and 3.44 h and 1.85 h

moisture sorption behaviour (DVS isotherm) ([3]; 25 degrees C.): gradual increase in moisture sorption
degradation to the lactone (percent lactone) [6]: about 3%
stability in suspension of omega-3 oil and an alcohol relative to other pravastatin salts [6]: higher stability
Compound: CC[C@H](C)C(=O)O[C@H]1C[C@H](O)C=C2C=C[C@H](C)[C@H](CC[C@@H](O)C[C@@H](O)CC(=O)O)[C@H]21.[Zn] [pravastatin zinc salt]

aqueous solubility [2]: 14.22 mg/mL
Compound: CCC(C)C(=O)OC1CC(O)C=C2C=CC(C)C(CCC(O)CC(O)CC(=O)[O-])C21.CCC(C)C(=O)OC1CC(O)C=C2C=CC(C)C(CCC(O)CC(O)CC(=O)[O-])C21.[Mg+2] (centres unmarked) [pravastatin magnesium salt (habit A), pravastatin magnesium salt]

Compound: pravastatin magnesium salt
aqueous solubility [2]: 17.24 mg/mL

aqueous solubility [2]: 16.12 mg/mL
Compound: CCC(C)C(=O)OC1CC(O)C=C2C=CC(C)C(CCC(O)CC(O)CC(=O)[O-])C21.CCC(C)C(=O)OC1CC(O)C=C2C=CC(C)C(CCC(O)CC(O)CC(=O)[O-])C21.[Mg+2] (centres unmarked) [pravastatin magnesium salt (habit B), pravastatin magnesium salt]
